Data as given in patent US20220324835A1 (Nurix Therapeutics, Inc., priority 2018, published 2022).

Tests used:
Cbl-b = Cbl-b (Homo sapiens, UniProt Q13191); assay: Cbl-b activity assay (Cbl-b inhibition assay), TR-FRET of Cbl-b interaction with UbcH5B-Ub; assay type: biochemical; details: assay buffer with 100 mM NaCl, 60 nM Src kinase; read-out: Cbl-b activity IC50
In short: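 UbcH5B (C85K) conjugated to N-terminally Bodipy-Fluorescein-labeled ubiquitin served as the fluorescent partner. After compound preincubation, Src kinase (60 nM) with 1 mM ATP and 5 mM MgCl2 (final) was added for 1.5 h, followed by a further 1 h incubation. Some values were obtained with 50 mM NaCl and 30 nM Src.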

T-cell [1] = assay: CD25 cell surface staining on T-cells stimulated with anti-CD3 antibody alone (Biological Example 2); assay type: cell-based, human; details: Homo sapiens, T-cell
T-cell [2] = assay: IL-2 secretion from T-cells stimulated with anti-CD3 antibody alone (Biological Example 2); assay type: cell-based, human; details: Homo sapiens, T-cell
[3] = 1 μM Cbl-b inhibitor, fold change over baseline (anti-CD3/anti-CD28 stimulated T-cells without inhibitor), read-out: CD25 staining Anti-CD3 stimulation
[4] = 1 μM Cbl-b inhibitor, fold change over baseline (anti-CD3/anti-CD28 stimulated T-cells without inhibitor), read-out: IL-2 secretion Anti-CD3 stimulation

Sequence of Cbl-b (Q13191 36-427): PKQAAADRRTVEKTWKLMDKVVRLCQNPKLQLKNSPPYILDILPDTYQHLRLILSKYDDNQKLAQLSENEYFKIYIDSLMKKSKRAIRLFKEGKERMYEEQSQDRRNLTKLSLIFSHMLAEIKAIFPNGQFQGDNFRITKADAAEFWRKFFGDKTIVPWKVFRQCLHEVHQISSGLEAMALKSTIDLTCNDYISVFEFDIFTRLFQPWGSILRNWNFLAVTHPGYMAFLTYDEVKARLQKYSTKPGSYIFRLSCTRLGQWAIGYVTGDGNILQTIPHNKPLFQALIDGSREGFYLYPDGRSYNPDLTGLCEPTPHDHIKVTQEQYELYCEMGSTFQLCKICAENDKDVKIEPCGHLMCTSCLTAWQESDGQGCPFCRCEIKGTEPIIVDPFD

Structure (SMILES)	IC50 (Cbl-b) [nM]	other results
Cn1cnnc1CC1(c2cccc(N3Cc4c(cc(CN5CC[C@@H](C#N)C5)cc4C(F)(F)F)C3=O)c2)COC1 [Compound 421, (R)-1-((2-(3-(3-((4-methyl-4H-1,2,4-triazol-3-yl)methyl)oxetan-3-yl)phenyl)-3-oxo-7-(trifluoromethyl)isoindolin-5-yl)methyl)pyrrolidine-3-carbonitrile]	< 100	–
Cn1cnnc1CC1(c2cccc(N3Cc4c(cc(CN5CC(F)C5)cc4C(F)(F)F)C3=O)c2)COC1 [Compound 415, 6-((3-fluoroazetidin-1-yl)methyl)-2-(3-(3-((4-methyl-4H-1,2,4-triazol-3-yl)methyl)oxetan-3-yl)phenyl)-4-(trifluoromethyl)isoindolin-1-one]	< 100	–
Cn1cnnc1CC1(c2cccc(N3Cc4c(cc(CN5CCC6(CC6)C5)cc4C(F)(F)F)C3=O)c2)COC1 [Compound 520, 6-((5-azaspiro[2.4]heptan-5-yl)methyl)-2-(3-(3-((4-methyl-4H-1,2,4-triazol-3-yl)methyl)oxetan-3-yl)phenyl)-4-(trifluoromethyl)isoindolin-1-one]	< 100	–
Cn1cnnc1CC1(c2cccc(NC(=O)c3cc(CN4CCC5(CC5)C4)cc(C4CC4)n3)c2)COC1 [Compound 519, 4-((5-azaspiro[2.4]heptan-5-yl)methyl)-6-cyclopropyl-N-(3-(3-((4-methyl-4H-1,2,4-triazol-3-yl)methyl)oxetan-3-yl)phenyl)picolinamide]	< 100	–
Cn1cnnc1CC1(c2cccc(N3Cc4c(cc(CN5CC[C@H](C#N)C5)cc4C(F)(F)F)C3=O)c2)COC1 [Compound 422, (S)-1-((2-(3-(3-((4-methyl-4H-1,2,4-triazol-3-yl)methyl)oxetan-3-yl)phenyl)-3-oxo-7-(trifluoromethyl)isoindolin-5-yl)methyl)pyrrolidine-3-carbonitrile]	< 100	–
Cn1cnnc1C(F)(F)[C@](C)(F)c1cccc(N2Cc3c(cc(N4CCNCC4)cc3C(F)(F)F)C2=O)c1 [Compound 442, (R)-6-(Piperazin-1-yl)-2-(3-(1,1,2-trifluoro-1-(4-methyl-4H-1,2,4-triazol-3-yl)propan-2-yl)phenyl)-4-(trifluoromethyl)isoindolin-1-one]	< 100	–
C[C@H](c1cc2c(c(C(F)(F)F)c1)CN(c1cccc(C3(Cc4nncn4C)COC3)c1)C2=O)N1CC[C@H](F)C1 [Compound 413, 6-((R)-1-((S)-3-fluoropyrrolidin-1-yl)ethyl)-2-(3-(3-((4-methyl-4H-1,2,4-triazol-3-yl)methyl)oxetan-3-yl)phenyl)-4-(trifluoromethyl)isoindolin-1-one]	< 100	–
C[C@@H](c1cc2c(c(C(F)(F)F)c1)CN(c1cccc(C3(Cc4nncn4C)COC3)c1)C2=O)N1CC[C@H](F)C1 [Compound 412, 6-((S)-1-((S)-3-fluoropyrrolidin-1-yl)ethyl)-2-(3-(3-((4-methyl-4H-1,2,4-triazol-3-yl)methyl)oxetan-3-yl)phenyl)-4-(trifluoromethyl)isoindolin-1-one]	< 100	–
CN1CC2CCC(C1)N2c1cc2c(c(C(F)(F)F)c1)CN(c1cccc(C3(Cc4nncn4C)COC3)c1)C2=O [Compound 386, 2-(3-(3-((4-Methyl-4H-1,2,4-triazol-3-yl)methyl)oxetan-3-yl)phenyl)-6-(3-methyl-3,8-diazabicyclo[3.2.1]octan-8-yl)-4-(trifluoromethyl)isoindolin-1-one]	< 100	fold induction at 1 µM (T-cell [1]; read-out: CD25 staining, Anti-CD3 stimulation, fold change over baseline): > 1; fold induction at 1 µM (T-cell [2]; read-out: IL-2 secretion, Anti-CD3 stimulation, fold change over baseline): > 0.201
Cn1cnnc1CC1(c2cccc(N3Cc4c(cc(CN5CCC[C@H](F)C5)cc4C(F)(F)F)C3=O)c2)COC1 [Compound 432, 6-{[(3S)-3-fluoropiperidin-1-yl]methyl}-2-(3-{3-[(4-methyl-4H-1,2,4-triazol-3-yl)methyl]oxetan-3-yl}phenyl)-4-(trifluoromethyl)-2,3-dihydro-1H-isoindol-1-one]	< 100	–
Cn1cnnc1C(F)(F)[C@](C)(F)c1cccc(N2Cc3c(cc(CN4CC[C@@H](C#N)C4)cc3C(F)(F)F)C2=O)c1 [Compound 455, (R)-1-((3-oxo-2-(3-((R)-1,1,2-trifluoro-1-(4-methyl-4H-1,2,4-triazol-3-yl)propan-2-yl)phenyl)-7-(trifluoromethyl)isoindolin-5-yl)methyl)pyrrolidine-3-carbonitrile]	< 100	–
C[C@@H](c1cc2c(c(C(F)(F)F)c1)CN(c1cccc(C3(Cc4nncn4C)COC3)c1)C2=O)N1C[C@H]2C[C@H]2C1 [Compound 541a, 6-((1S)-1-(3-azabicyclo[3.1.0]hexan-3-yl)ethyl)-2-(3-(3-((4-methyl-4H-1,2,4-triazol-3-yl)methyl)oxetan-3-yl)phenyl)-4-(trifluoromethyl)isoindolin-1-one]	< 100	–
C[C@H](c1cc2c(c(C(F)(F)F)c1)CN(c1cccc(C3(Cc4nncn4C)COC3)c1)C2=O)N1CCC(C)(F)CC1 [Example 553b, (R)-6-(1-(4-fluoro-4-methylpiperidin-1-yl)ethyl)-2-(3-(3-((4-methyl-4H-1,2,4-triazol-3-yl)methyl)oxetan-3-yl)phenyl)-4-(trifluoromethyl)isoindolin-1-one]	< 100	–
C[C@@H]1CN(Cc2cc3c(c(C(F)(F)F)c2)CN(c2cccc(C4(Cc5nncn5C)COC4)c2)C3=O)CCO1 [Example 663b, (R)-2-(3-(3-((4-methyl-4H-1,2,4-triazol-3-yl)methyl)oxetan-3-yl)phenyl)-6-((2-methylmorpholino)methyl)-4-(trifluoromethyl)isoindolin-1-one]	< 100	fold induction at 1 µM (T-cell [1]; [3]): > 1; fold induction at 1 µM (T-cell [2]; [4]): > 0.201
Cn1cnnc1CC1(c2cccc(N3Cc4c(cc(CN5C[C@H]6C[C@H]6C5)cc4C(F)(F)F)C3=O)c2)COC1 [Compound 429, 6-(((1R,5S)-3-azabicyclo[3.1.0]hexan-3-yl)methyl)-2-(3-(3-((4-methyl-4H-1,2,4-triazol-3-yl)methyl)oxetan-3-yl)phenyl)-4-(trifluoromethyl)isoindolin-1-one]	< 100	–
Cn1cnnc1CC1(c2cccc(N3Cc4c(cc(CN5CC[C@H](F)C5)cc4C(F)(F)F)C3=O)c2)COC1 [Compound 410, 6-{[(3S)-3-fluoropyrrolidin-1-yl]methyl}-2-(3-{3-[(4-methyl-4H-1,2,4-triazol-3-yl)methyl]oxetan-3-yl}phenyl)-4-(trifluoromethyl)-2,3-dihydro-1H-isoindol-1-one]	< 100	–
C[C@H](c1cc2c(c(C(F)(F)F)c1)CN(c1cccc(C3([C@H](F)c4nncn4C)COC3)c1)C2=O)N1CCC2(CC2)C1 (stereo in doubt) [Example 575, 6-((R)-1-(5-Azaspiro[2.4]heptan-5-yl)ethyl)-2-(3-(3-((S)-fluoro(4-methyl-4H-1,2,4-triazol-3-yl)methyl)oxetan-3-yl)phenyl)-4-(trifluoromethyl)isoindolin-1-one]	< 100	fold induction at 1 µM (T-cell [1]; [3]): > 1; fold induction at 1 µM (T-cell [2]; [4]): > 0.201
Cn1cnnc1CC1(c2cccc(N3Cc4c(cc(CN5CC6(CC6)C5)cc4C(F)(F)F)C3=O)c2)COC1 [Compound 487, 6-{5-azaspiro[2.3]hexan-5-ylmethyl}-2-(3-{3-[(4-methyl-1,2,4-triazol-3-yl)methyl]oxetan-3-yl}phenyl)-4-(trifluoromethyl)-3H-isoindol-1-one]	< 100	–
